# Where two headings read alike, the source gives them in different places.
# Experiments:
# [1] = DPPH radical scavenging assay; assay type: biochemical; conditions: for Mean IC50 for scavenging initial DPPH radicals: mean ± SD of three replicates; for IC50: mean ± SD, converted from mg/mL, read-out: Mean IC50 for scavenging initial DPPH radicals (converted)
# Outline: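 Ethanolic DPPH mixed 1:1 with test compound, BHT as reference antioxidant, incubated 1 h at room temperature in darkness. Residual DPPH absorbance read at 519 nm against a no-compound control; scavenging % = (1 − Acompound/AControl) × 100, from three independent triplicate measurements.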
# [2] = Viability assay (LDH release), HUVEC; assay type: cell-based, human; conditions: human
# Protocol: The samples were diluted in Dulbecco’s Modified Eagle’s Medium, consisting of 10% fetal bovine serum (FBS), added to cells grown and cultured for 24 h in a 5% CO2-humidified incubator at 37 °C. Thereafter, the activity of lactate dehydrogenase released from damaged cells was determined in the collected supernatant aliquots using an ELISA end-point assay (Benchmark Plus, Bio-Rad, CA, USA); 0.1% Triton X-100 in the assay medium and the assay medium only were used as the positive and negative controls, respectively. Cell viability was expressed as a relative percentage of the OD values (at 550 nm) for compound-treated cells (final concentration of 200 µg /mL) and the negative control, which was shown as the mean % ± SD (n = 3). The results of the viability assays for the potential cytotoxic candidates were compared with the % of viable human umbilical vein endothelial cells (HUVEC) at the same concentration. These cells were grown in Dulbecco’s Modified Eagle’s Medium (PAN-Biotech; Barcelona, Spain) containing 10% FBS (Sigma Aldrich; St. Quentin-Fallavier, France), 2 mM Glutamine (Sigma Aldrich), 100 units/mL penicillin and […] streptomycin (Life Technologies; Paisley, UK).
# Bcl-2 gene = assay: qRT-PCR expressional level of Bcl-2 gene; assay type: cell-based, human; conditions: 10 µg/mL, 24 h, HCT-116, vs negative control
# Protocol: Considering these facts, enhancing apoptosis has been extensively studied as a potential drug target in cancer therapy, therefore, in this study, we investigated the effects of the most cytotoxic compounds, 3a and 3f, (at 10 µg/mL, 24 h incubation) on the expressional levels of these apoptotic regulator genes (Bax and Bcl-2) using quantitative reverse transcription–polymerase chain reactions (qRT-PCR).
# (§1) Briefly, in a 25 mL flask (1 × 10^6 cells/flask), the human colon cancer cell lines (HCT-116 and LoVo) were grown for 24 h. After replacing the culture media with a medium containing 1% FBS for 24 h, the cells were treated with 10 µg/mL of each tested compound in 2 mL of fresh medium containing 1% FBS, or 0.25% DMSO, which was used as the negative control. The cells were adherent cells and they were detached using trypsin after being washed with ice-cold phosphate-buffered saline (PBS).
# (§2) Primers specific for the Bax, Bcl-2 and Caspase-3 genes were designed using the primer blast (https://www.ncbi.nlm.nih.gov/tools/primer-blast/ accessed on 9 January 2023) software. The primers were used in the RT-qPCR analysis to amplify fragments of 100–200 bp in length (Table 11).
# The RNeasy Mini Kit (Qiagen, Hilden, Germany) was used to extract the total RNA. The RNA purity, quality and quantity were checked using a Nanodrop 8000 spectrophotometer (Thermo Fisher Scientific, USA). […]
# caspase-3 gene = assay: qRT-PCR expressional level of caspase-3 gene; assay type: cell-based, human; conditions: 10 µg/mL, 24 h
# Protocol: Therefore, in this study the expressional levels of caspase-3 as a major apoptosis effector were evaluated in 3a- and 3f-treated HCT-116 and LoVo cell cultures (10 µg/mL, for 24 h incubation), using qRT-PCR analysis.
# as §1, §2
# The RNeasy Mini Kit (Qiagen, Hilden, Germany) was used to extract the total RNA. The RNA purity, quality and quantity were checked using a Nanodrop 8000 spectrophotometer (Thermo Fisher Scientific, USA). The Hyperscript Kit (GeneAll, Seoul, Korea) and random hexamers (GeneAll, Seoul, Korea ) were used to reverse-transcript 1 µg of RNA from each sample into cDNA as described in the manufacturer’s protocol.
# A QuantStudio 7Flex Detection System (Applied Biosystems, Thermo Fischer Scientific, Inc., USA) was used to measure the mRNA expression of Bax, Caspase-3 and Bcl-2. The reactions for the synthesis of cDNA were carried out using an iScript One-Step RT-PCR Kit with SYBR Green (cat no: 170–8892; Bio-Rad, Inc., Hercules, CA, USA). Briefly, primers (Table 10) were added to the reaction mixture at a final concentration of 10 pM. Thus, 5 µL of each cDNA sample were added to a […] PCR mixture consisting of 12.5 µL of 2 × iScript One-Step RT-PCR Kit with SYBR Green, 0.5 µL of primers for Bax, Caspase-3 and Bcl-2 as well as GAPDH (Macrogen, Seoul, Korea), and 7 µL RNase/DNase-free water (Qiagen, DE). The thermal cycling conditions for Bax, Caspase-3 and Bcl-2 were established as 5 min at 95 °C, followed by 40 cycles of 30 s at 95 °C and 30 s at 60 °C, and finally 10 s at 95 °C. The presence of a single melting temperature peak verified the specificity of each primer. The expression of a house-keeping gene, GAPDH, was used as an endogenous control for the current work.
Compound,Mean IC50 for scavenging initial DPPH radicals [1] [mg/L],IC50 [1] [µM],viability at 200 µg/mL [2] [%],Expressional level of anti-apoptotic gene Bcl-2 (Bcl-2 gene) [fold],"Expression level of caspase-3 gene (upregulated) (caspase-3 gene; HCT-116, vs negative control) [fold]","Expression level of caspase-3 gene (upregulated) (caspase-3 gene; LoVo, vs negative control) [fold]","viability at 200 µg/mL ([2]; human umbilical vein endothelial cells (HUVEC), 200 µg/mL, read-out: Mean % of viable cells ± SD, HUVEC) [%]"
"O=c1c2cc(Cl)ccc2[nH]c(=S)n1-c1ccc([N+](=O)[O-])cc1 [Compound 3f, 6-Chloro-3-(4-nitro-phenyl)-2-thioxo-2,3-dihydro-1H-quinazolin-4-one]",227 ± 10,680,99.67 ± 0.577,0.345,6.071,6.9340,–
"O=c1c2cc(Cl)ccc2[nH]c(=S)n1-c1cccc(C(F)(F)F)c1 [Compound 3a, 6-Chloro-2-thioxo-3-(3-trifluoromethyl-phenyl)-2,3-dihydro-1H-quinazolin-4-one]",68 ± 4,191,–,0.635,3.731,2.6026,97 ± 2.65

# — paper PMC10610505, “Synthesis and Biological Evaluation of Some New 3-Aryl-2-thioxo-2,3-dihydroquinazolin-4(1H)-ones and 3-Aryl-2-(benzylthio)quinazolin-4(3H)-ones as Antioxidants; COX-2, LDHA, α-Glucosidase and α-Amylase Inhibitors; and Anti-Colon Carcinoma and Apoptosis-Inducing Agents” (Pharmaceuticals, 2023)
